Values after ≈ are worked out from the molar mass of the structure shown. Active and inactive are the calls of the source. No cut-off for these calls is given here.
Columns and labels:
[1] = system: Mycobacterium tuberculosis; assay: Antimycobacterial activity against extensively drug-resistant Mycobacterium tuberculosis H37Rv by CLSI method; assay type: functional
[2] = system: Mycobacterium tuberculosis; assay: Antimycobacterial activity against extensively drug-resistant Mycobacterium tuberculosis isolate 2474 horboring rpoB H526Y, katG D329A/R463L, gyrA D94G/S95T, rrs A1401G by CLSI method; assay type: functional
[3] = system: Mycobacterium tuberculosis; assay: Antimycobacterial activity against extensively drug-resistant Mycobacterium tuberculosis isolate 625 horboring rpoB S531L/G566R/I569L, katG S315T/R463L, gyrA A90V/S95T, rrs A1401G by CLSI method; assay type: functional
[4] = system: Mycobacterium tuberculosis; assay: Antimycobacterial activity against extensively drug-resistant Mycobacterium tuberculosis isolate 761 horboring rpoB S531L/Q510P, katG S315T/R463L, gyrA D94N/S95T, rrs G1484T by CLSI method; assay type: functional
[5] = system: Mycobacterium tuberculosis; assay: Antimycobacterial activity against extensively drug-resistant Mycobacterium tuberculosis isolate 2911 horboring rpoB D516V, katG S315T/R463L, gyrA D94G/S95T/R128S/Y129C, rrs A1401G by CLSI method; assay type: functional
[6] = system: Mycobacterium tuberculosis; assay: Antimycobacterial activity against extensively drug-resistant Mycobacterium tuberculosis isolate 2301 horboring rpoB S531L, katG R463L/E217G, gyrA D94N/S95T, rrs A1401G by CLSI method; assay type: functional
[7] = system: Mycobacterium tuberculosis; assay: Antimycobacterial activity against extensively drug-resistant Mycobacterium tuberculosis isolate 2403 obtained from sputum of patient at 0.1 ug/ml by Bactec MGIT960 modified proportion method; assay type: functional, organism-based
[8] = system: Mycobacterium tuberculosis; assay: Antimycobacterial activity against extensively drug-resistant Mycobacterium tuberculosis isolate 2911 obtained from sputum of patient at 0.1 ug/ml by Bactec MGIT960 modified proportion method; assay type: functional, organism-based
[9] = system: Mycobacterium tuberculosis; assay: Antimycobacterial activity against extensively drug-resistant Mycobacterium tuberculosis isolate 761 obtained from pus of patient at 0.1 ug/ml by Bactec MGIT960 modified proportion method; assay type: functional, organism-based
[10] = system: Mycobacterium tuberculosis; assay: Antimycobacterial activity against extensively drug-resistant Mycobacterium tuberculosis isolate 625 obtained from sputum of patient at 0.1 ug/ml by Bactec MGIT960 modified proportion method; assay type: functional, organism-based
[11] = system: Mycobacterium tuberculosis; assay: Antimycobacterial activity against extensively drug-resistant Mycobacterium tuberculosis isolate 2301 obtained from sputum of patient at 0.1 ug/ml by Bactec MGIT960 modified proportion method; assay type: functional, organism-based
[12] = system: Mycobacterium tuberculosis; assay: Antimycobacterial activity against extensively drug-resistant Mycobacterium tuberculosis isolate 2474 obtained from sputum of patient at 0.1 ug/ml by Bactec MGIT960 modified proportion method; assay type: functional, organism-based
[13] = system: Mycobacterium tuberculosis; assay: Antimycobacterial activity against extensively drug-resistant Mycobacterium tuberculosis isolate 2403 obtained from sputum of patient at 4 ug/ml by Bactec MGIT960 modified proportion method; assay type: functional, organism-based
[14] = system: Mycobacterium tuberculosis; assay: Antimycobacterial activity against extensively drug-resistant Mycobacterium tuberculosis isolate 2911 obtained from sputum of patient at 4 ug/ml by Bactec MGIT960 modified proportion method; assay type: functional, organism-based
[15] = system: Mycobacterium tuberculosis; assay: Antimycobacterial activity against extensively drug-resistant Mycobacterium tuberculosis isolate 2301 obtained from sputum of patient at 4 ug/ml by Bactec MGIT960 modified proportion method; assay type: functional, organism-based
[16] = system: Mycobacterium tuberculosis; assay: Antimycobacterial activity against extensively drug-resistant Mycobacterium tuberculosis isolate 761 obtained from pus of patient at 4 ug/ml by Bactec MGIT960 modified proportion method; assay type: functional, organism-based
[17] = system: Mycobacterium tuberculosis; assay: Antimycobacterial activity against extensively drug-resistant Mycobacterium tuberculosis isolate 2474 obtained from sputum of patient at 4 ug/ml by Bactec MGIT960 modified proportion method; assay type: functional, organism-based
[18] = system: Mycobacterium tuberculosis; assay: Antimycobacterial activity against extensively drug-resistant Mycobacterium tuberculosis isolate 625 obtained from sputum of patient at 4 ug/ml by Bactec MGIT960 modified proportion method; assay type: functional, organism-based
[19] = system: Mycobacterium tuberculosis; assay: Antimycobacterial activity against extensively drug-resistant Mycobacterium tuberculosis isolate 2911 obtained from sputum of patient at 2 ug/ml by Bactec MGIT960 modified proportion method; assay type: functional, organism-based
[20] = system: Mycobacterium tuberculosis; assay: Antimycobacterial activity against extensively drug-resistant Mycobacterium tuberculosis isolate 2301 obtained from sputum of patient at 2 ug/ml by Bactec MGIT960 modified proportion method; assay type: functional, organism-based
[21] = system: Mycobacterium tuberculosis; assay: Antimycobacterial activity against extensively drug-resistant Mycobacterium tuberculosis isolate 2403 obtained from sputum of patient at 2 ug/ml by Bactec MGIT960 modified proportion method; assay type: functional, organism-based
[22] = system: Mycobacterium tuberculosis; assay: Antimycobacterial activity against extensively drug-resistant Mycobacterium tuberculosis isolate 625 obtained from sputum of patient at 2 ug/ml by Bactec MGIT960 modified proportion method; assay type: functional, organism-based
[23] = system: Mycobacterium tuberculosis; assay: Antimycobacterial activity against extensively drug-resistant Mycobacterium tuberculosis isolate 761 obtained from pus of patient at 2 ug/ml by Bactec MGIT960 modified proportion method; assay type: functional, organism-based
[24] = system: Mycobacterium tuberculosis; assay: Antimycobacterial activity against extensively drug-resistant Mycobacterium tuberculosis isolate 2474 obtained from sputum of patient at 2 ug/ml by Bactec MGIT960 modified proportion method; assay type: functional, organism-based
[25] = system: Mycobacterium tuberculosis; assay: Antimycobacterial activity against extensively drug-resistant Mycobacterium tuberculosis isolate 2403 obtained from sputum of patient at 1 ug/ml by Bactec MGIT960 modified proportion method; assay type: functional, organism-based
[26] = system: Mycobacterium tuberculosis; assay: Antimycobacterial activity against extensively drug-resistant Mycobacterium tuberculosis isolate 761 obtained from pus of patient at 1 ug/ml by Bactec MGIT960 modified proportion method; assay type: functional, organism-based
[27] = system: Mycobacterium tuberculosis; assay: Antimycobacterial activity against extensively drug-resistant Mycobacterium tuberculosis isolate 2474 obtained from sputum of patient at 1 ug/ml by Bactec MGIT960 modified proportion method; assay type: functional, organism-based
[28] = system: Mycobacterium tuberculosis; assay: Antimycobacterial activity against extensively drug-resistant Mycobacterium tuberculosis isolate 2911 obtained from sputum of patient at 1 ug/ml by Bactec MGIT960 modified proportion method; assay type: functional, organism-based
[29] = system: Mycobacterium tuberculosis; assay: Antimycobacterial activity against extensively drug-resistant Mycobacterium tuberculosis isolate 2301 obtained from sputum of patient at 1 ug/ml by Bactec MGIT960 modified proportion method; assay type: functional, organism-based
[30] = system: Mycobacterium tuberculosis; assay: Antimycobacterial activity against extensively drug-resistant Mycobacterium tuberculosis isolate 625 obtained from sputum of patient at 1 ug/ml by Bactec MGIT960 modified proportion method; assay type: functional, organism-based

Structure (SMILES)	MIC [1]	MIC [2]	MIC [3]	MIC [4]	MIC [5]	MIC [6]	also measured
CCc1cc(C(N)=S)ccn1 [ETHIONAMIDE]	0.5 µg/mL (≈ 3.01 µM)	>16 µg/mL	4 µg/mL (≈ 24.1 µM)	1 µg/mL (≈ 6.02 µM)	4 µg/mL (≈ 24.1 µM)	2 µg/mL (≈ 12 µM)	–
NNC(=O)c1ccncc1 [ISONIAZID]	0.25 µg/mL (≈ 1.82 µM)	1 µg/mL (≈ 7.29 µM)	>16 µg/mL	4 µg/mL (≈ 29.2 µM)	4 µg/mL (≈ 29.2 µM)	0.5 µg/mL (≈ 3.65 µM)	Activity [7]: inactive; Activity [8]: inactive; Activity [9]: inactive; Activity [10]: inactive; Activity [11]: inactive; Activity [12]: inactive
NC[C@H]1O[C@H](O[C@H]2[C@H](O)[C@@H](O[C@H]3O[C@H](CO)[C@@H](O)[C@H](N)[C@H]3O)[C@H](N)C[C@@H]2N)[C@H](O)[C@@H](O)[C@@H]1O [KANAMYCIN]	2 µg/mL (≈ 4.13 µM)	>16 µg/mL	>16 µg/mL	>16 µg/mL	>16 µg/mL	>16 µg/mL	Activity [13]: inactive; Activity [14]: inactive; Activity [15]: inactive; Activity [16]: inactive; Activity [17]: Active; Activity [18]: inactive
CC1COc2c(N3CCN(C)CC3)c(F)cc3c(=O)c(C(=O)O)cn1c23 (stereo unspecified) [OFLOXACIN]	0.5 µg/mL (≈ 1.38 µM)	8 µg/mL (≈ 22.1 µM)	16 µg/mL (≈ 44.3 µM)	16 µg/mL (≈ 44.3 µM)	8 µg/mL (≈ 22.1 µM)	8 µg/mL (≈ 22.1 µM)	Activity [19]: inactive; Activity [20]: inactive; Activity [21]: inactive; Activity [22]: inactive; Activity [23]: inactive; Activity [24]: inactive
CO[C@H]1/C=C/O[C@@]2(C)Oc3c(C)c(O)c4c(O)c(c(/C=N/N5CCN(C)CC5)c(O)c4c3C2=O)NC(=O)/C(C)=C\C=C\[C@H](C)[C@H](O)[C@@H](C)[C@@H](O)[C@@H](C)[C@H](OC(C)=O)[C@@H]1C [RIFAMPIN]	0.25 µg/mL (≈ 0.304 µM)	>16 µg/mL	>16 µg/mL	>16 µg/mL	16 µg/mL (≈ 19.4 µM)	>16 µg/mL	Activity [25]: inactive; Activity [26]: inactive; Activity [27]: inactive; Activity [28]: inactive; Activity [29]: inactive; Activity [30]: inactive
C[C@@H]1CN(c2c(F)c(N)c3c(=O)c(C(=O)O)cn(C4CC4)c3c2F)C[C@H](C)N1 [SPARFLOXACIN]	0.5 µg/mL (≈ 1.27 µM)	16 µg/mL (≈ 40.8 µM)	8 µg/mL (≈ 20.4 µM)	16 µg/mL (≈ 40.8 µM)	>16 µg/mL	16 µg/mL (≈ 40.8 µM)	–
CN[C@@H]1[C@H](O[C@H]2[C@H](O[C@H]3[C@H](O)[C@@H](O)[C@H](N=C(N)N)[C@@H](O)[C@@H]3N=C(N)N)O[C@@H](C)[C@]2(O)C=O)O[C@@H](CO)[C@H](O)[C@H]1O [STREPTOMYCIN]	1 µg/mL (≈ 1.72 µM)	>16 µg/mL	16 µg/mL (≈ 27.5 µM)	0.125 µg/mL (≈ 0.215 µM)	>16 µg/mL	0.5 µg/mL (≈ 0.86 µM)	Activity [25]: inactive; Activity [26]: Active; Activity [27]: inactive; Activity [28]: inactive; Activity [29]: inactive

From ChEMBL document CHEMBL1671750, “Emergence and molecular characterization of extensively drug-resistant Mycobacterium tuberculosis clinical isolates from the Delhi Region in India” (2010)
